Columns and labels:
Assay in all cases: relative viability (nuclei count vs DMSO), 5 days (fraction); higher = more cells survive
[1] = compound: C1CN(CCN1)C2=CC=C(C=C2)C3=CN4C(=C(C=N4)C5=CC=NC6=CC=CC=C56)N=C3 [DM3189]
How it was run: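 Vehicle-anchored 1536-well plates of lung cancer cell lines, held overnight at 37 °C, were pinned with five library-drug doses (not always all listed) spaced by √10. No medium change followed over the next 5 days, after which the cells were fixed, permeabilised and Hoechst-stained together and imaged at 4×. Nuclei were counted with MetaXpress, and viability is treated-well nuclei over vehicle-well nuclei, taken as a median across plates. Plates passed with control CV below 25% and at least one doubling.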

[2] = compound: C1CN(CCN1)C2=CC=C(C=C2)C3=CN4C(=C(C=N4)C5=CC=NC6=CC=CC=C56)N=C3 [DM3189] + CC(C)C[C@H](NC(=O)[C@H](Cc1ccccc1)NC(=O)c1cnccn1)B(O)O [Bortezomib] (partner 0.002 µM)
How it was run: (§1)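 Nuclei were stained with Hoechst during a one-step fixation (final 0.05% Triton X-100, 1% formaldehyde, 1 ug/ml Hoechst) carried out 5 days after dosing, then counted on 4× images. The cells, lung cancer lines in 1536-well plates, had been dosed by pin tool the day after seeding with one drug alone or a fixed anchor-drug dose plus five library-drug doses (not always all listed) in √10 steps. Relative viability is the nuclei count in treated wells divided by that in vehicle wells, and each value is the median of duplicate plates.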

[3] = compound: C1CN(CCN1)C2=CC=C(C=C2)C3=CN4C(=C(C=N4)C5=CC=NC6=CC=CC=C56)N=C3 [DM3189] + CCNC(=O)c1noc(-c2cc(C(C)C)c(O)cc2O)c1-c1ccc(CN2CCOCC2)cc1 [Luminespib] (partner 0.01 µM)
How it was run: as §1

[4] = compound: C1CN(CCN1)C2=CC=C(C=C2)C3=CN4C(=C(C=N4)C5=CC=NC6=CC=CC=C56)N=C3 [DM3189] + COc1cc2c(Oc3ccc(NC(=O)C4(C(=O)Nc5ccc(F)cc5)CC4)cc3F)ccnc2cc1OCCCN1CCOCC1 [Foretinib] (partner 0.25 µM)
How it was run: as §1

[5] = compound: C1CN(CCN1)C2=CC=C(C=C2)C3=CN4C(=C(C=N4)C5=CC=NC6=CC=CC=C56)N=C3 [DM3189] + COc1cccc2cc(-c3nc([C@H]4CC[C@H](C(=O)O)CC4)n4ncnc(N)c34)[nH]c12 [OSI-027] (partner 0.5 µM)
How it was run: as §1

[6] = compound: C1CN(CCN1)C2=CC=C(C=C2)C3=CN4C(=C(C=N4)C5=CC=NC6=CC=CC=C56)N=C3 [DM3189] + CS(=O)(=O)CCNCc1ccc(-c2ccc3ncnc(Nc4ccc(OCc5cccc(F)c5)c(Cl)c4)c3c2)o1 [Lapatinib] (partner 2 µM)
How it was run: as §1

[7] = compound: C1CN(CCN1)C2=CC=C(C=C2)C3=CN4C(=C(C=N4)C5=CC=NC6=CC=CC=C56)N=C3 [DM3189] + CS(=O)(=O)N1CCN(Cc2cc3nc(-c4cccc5[nH]ncc45)nc(N4CCOCC4)c3s2)CC1 [Pictilisib] (partner 1 µM)
How it was run: as §1

[8] = compound: C1CN(CCN1)C2=CC=C(C=C2)C3=CN4C(=C(C=N4)C5=CC=NC6=CC=CC=C56)N=C3 [DM3189] + C[C@@H](Oc1cc(-c2cnn(C3CCNCC3)c2)cnc1N)c1c(Cl)ccc(F)c1Cl [Crizotinib] (partner 1 µM)
How it was run: as §1

[9] = compound: C1CN(CCN1)C2=CC=C(C=C2)C3=CN4C(=C(C=N4)C5=CC=NC6=CC=CC=C56)N=C3 [DM3189] + C[C@]1(O)C[C@@H](c2nc(-c3ccc4ccc(-c5ccccc5)nc4c3)c3c(N)nccn32)C1 [Linsitinib] (partner 1 µM)
How it was run: as §1

[10] = compound: C1CN(CCN1)C2=CC=C(C=C2)C3=CN4C(=C(C=N4)C5=CC=NC6=CC=CC=C56)N=C3 [DM3189] + Cc1nc(NC(=O)N2CCC[C@H]2C(N)=O)sc1-c1ccnc(C(C)(C)C(F)(F)F)c1 [Alpelisib] (partner 2 µM)
How it was run: as §1

[11] = compound: C1CN(CCN1)C2=CC=C(C=C2)C3=CN4C(=C(C=N4)C5=CC=NC6=CC=CC=C56)N=C3 [DM3189] + Cc1nc(Nc2ncc(C(=O)Nc3c(C)cccc3Cl)s2)cc(N2CCN(CCO)CC2)n1 [Dasatinib] (partner 0.075 µM)
How it was run: as §1

[12] = compound: C1CN(CCN1)C2=CC=C(C=C2)C3=CN4C(=C(C=N4)C5=CC=NC6=CC=CC=C56)N=C3 [DM3189] + N=C(N)NC(=N)NCCc1ccccc1 [Phenformin] (partner 250 µM)
How it was run: as §1

[13] = compound: C1CN(CCN1)C2=CC=C(C=C2)C3=CN4C(=C(C=N4)C5=CC=NC6=CC=CC=C56)N=C3 [DM3189] + Nc1nc2[nH]cc(CCc3ccc(C(=O)N[C@@H](CCC(=O)O)C(=O)O)cc3)c2c(=O)[nH]1 [Pemetrexed] (partner 0.2 µM)
How it was run: as §1

[14] = compound: C1CN(CCN1)C2=CC=C(C=C2)C3=CN4C(=C(C=N4)C5=CC=NC6=CC=CC=C56)N=C3 [DM3189] + Cc1cc(Nc2cc(N3CCN(C)CC3)nc(Sc3ccc(NC(=O)C4CC4)cc3)n2)n[nH]1 [Tozasertib] (partner 0.1 µM)
How it was run: as §1

NCI-H1563
relative viability ([1]; 0.08 µM): 1.06 | relative viability ([1]; 0.253 µM): 0.958 | relative viability ([1]; 0.8 µM): 1.03 | relative viability ([1]; 2.53 µM): 1.12 | relative viability ([2]; first compound 0.08 µM): 0.945 | relative viability ([2]; first compound 0.253 µM): 0.762 | relative viability ([2]; first compound 0.8 µM): 0.887 | relative viability ([2]; first compound 2.53 µM): 1.07 | relative viability ([3]; first compound 0.08 µM): 0.568 | relative viability ([3]; first compound 0.253 µM): 0.487 | relative viability ([3]; first compound 0.8 µM): 0.481 | relative viability ([3]; first compound 2.53 µM): 0.539 | relative viability ([4]; first compound 0.08 µM): 0.953 | relative viability ([4]; first compound 0.253 µM): 0.817 | relative viability ([4]; first compound 0.8 µM): 0.98 | relative viability ([4]; first compound 2.53 µM): 0.987 | relative viability ([5]; first compound 0.08 µM): 0.876 | relative viability ([5]; first compound 0.253 µM): 0.673 | relative viability ([5]; first compound 0.8 µM): 0.749 | relative viability ([5]; first compound 2.53 µM): 0.785 | relative viability ([6]; first compound 0.08 µM): 1.12 | relative viability ([6]; first compound 0.253 µM): 0.872 | relative viability ([6]; first compound 0.8 µM): 0.854 | relative viability ([6]; first compound 2.53 µM): 1.27 | relative viability ([7]; first compound 0.08 µM): 0.635 | relative viability ([7]; first compound 0.253 µM): 0.622 | relative viability ([7]; first compound 0.8 µM): 0.625 | relative viability ([7]; first compound 2.53 µM): 0.616 | relative viability ([8]; first compound 0.08 µM): 0.944 | relative viability ([8]; first compound 0.253 µM): 0.865 | relative viability ([8]; first compound 0.8 µM): 0.833 | relative viability ([8]; first compound 2.53 µM): 0.899 | relative viability ([9]; first compound 0.08 µM): 1.2 | relative viability ([9]; first compound 0.253 µM): 1.22 | relative viability ([9]; first compound 0.8 µM): 1.13 | relative viability ([9]; first compound 2.53 µM): 1.25 | relative viability ([10]; first compound 0.08 µM): 0.909 | relative viability ([10]; first compound 0.253 µM): 0.896 | relative viability ([10]; first compound 0.8 µM): 0.949 | relative viability ([10]; first compound 2.53 µM): 0.839 | relative viability ([11]; first compound 0.08 µM): 0.441 | relative viability ([11]; first compound 0.253 µM): 0.381 | relative viability ([11]; first compound 0.8 µM): 0.459 | relative viability ([11]; first compound 2.53 µM): 0.483 | relative viability ([12]; first compound 0.08 µM): 0.722 | relative viability ([12]; first compound 0.253 µM): 0.602 | relative viability ([12]; first compound 0.8 µM): 0.593 | relative viability ([12]; first compound 2.53 µM): 0.631 | relative viability ([13]; first compound 0.08 µM): 0.715 | relative viability ([13]; first compound 0.253 µM): 0.787 | relative viability ([13]; first compound 0.8 µM): 0.755 | relative viability ([13]; first compound 2.53 µM): 0.752

NCI-H1623
relative viability ([1]; 0.08 µM): 1.05 | relative viability ([1]; 0.253 µM): 0.874 | relative viability ([1]; 0.8 µM): 0.92 | relative viability ([1]; 2.53 µM): 0.979 | relative viability ([3]; first compound 0.08 µM): 0.482 | relative viability ([3]; first compound 0.253 µM): 0.494 | relative viability ([3]; first compound 0.8 µM): 0.313 | relative viability ([3]; first compound 2.53 µM): 0.537 | relative viability ([4]; first compound 0.08 µM): 0.939 | relative viability ([4]; first compound 0.253 µM): 0.901 | relative viability ([4]; first compound 0.8 µM): 0.83 | relative viability ([4]; first compound 2.53 µM): 0.818 | relative viability ([5]; first compound 0.08 µM): 0.517 | relative viability ([5]; first compound 0.253 µM): 0.43 | relative viability ([5]; first compound 0.8 µM): 0.34 | relative viability ([5]; first compound 2.53 µM): 0.369 | relative viability ([14]; first compound 0.08 µM): 0.406 | relative viability ([14]; first compound 0.253 µM): 0.426 | relative viability ([14]; first compound 0.8 µM): 0.408 | relative viability ([14]; first compound 2.53 µM): 0.377 | relative viability ([11]; first compound 0.08 µM): 0.588 | relative viability ([11]; first compound 0.253 µM): 0.611 | relative viability ([11]; first compound 0.8 µM): 0.456 | relative viability ([11]; first compound 2.53 µM): 0.527 | relative viability ([12]; first compound 0.08 µM): 0.61 | relative viability ([12]; first compound 0.253 µM): 0.528 | relative viability ([12]; first compound 0.8 µM): 0.46 | relative viability ([12]; first compound 2.53 µM): 0.545

Reference: the supplement of paper PMC10307832
